The record followed here is ChEMBL document CHEMBL4376806, “Antibiotic Adjuvants: Make Antibiotics Great Again!” (2019).

Converted amounts (≈) assume the structure as drawn.

One experiment concerns Klebsiella pneumoniae. In words: Potentiation of meropenem-induced antibacterial activity against Klebsiella pneumoniae N11-2218 harboring NDM1 infected in CD1 mouse assessed as mouse survival at 30 mg/kg, sc administered 30 mins post infection and measured 5 days post infection (reference value: 0%). The experiment is classed as functional. The note with it: N11-2218, sc.

Experiment [1] concerns the target Metallo-beta-lactamase type 2 (Klebsiella pneumoniae) (UniProt C7C422). Kind of experiment: Inhibition of beta-lactamase NDM-1 in Klebsiella pneumoniae N11-2218 assessed as potentiation of meropenem-induced antibacterial activity by measuring meropenem MIC at 8 ug/ml (Rvb =32 ug/ml).
Experiment [2] concerns the target Beta-lactamase (Staphylococcus aureus) (UniProt P00807). The note with it: 01A400.
Description: Inhibition of penicillinase in Staphylococcus aureus 01A400 assessed as potentiation of benzylpenicillin-induced antibacterial activity by measuring benzylpenicillin MIC at 3.12 ug/ml (Rvb = 200 ug/ml)
Another experiment concerns Haemophilus influenzae. The note with it: 54A042.
For experiment [3], the system named is Staphylococcus epidermidis. The conditions noted are these: 01B116.
Description: Inhibition of beta-lactamase in Staphylococcus epidermidis 01B116 assessed as potentiation of benzylpenicillin-induced antibacterial activity by measuring benzylpenicillin MIC at 3.12 ug/ml (Rvb >25 ug/ml)
The subject of the next experiment is Bacteroides fragilis. The conditions noted are these: 78C004.
Experiment [4] deals with T1, MexAB/OprM (Pseudomonas aeruginosa (strain ATCC 15692 / DSM 22644 / CIP 104116 / JCM14847 / LMG 12228 / 1C / PRS 101 / PAO1)) (UniProt P52477+P52002+Q51487). Kind of experiment: Inhibition of MexAB/OprM in Pseudomonas aeruginosa PAO1 assessed as potentiation of novobiocin-induced antibacterial activity by measuring novobiocin MIC at 128 ug/ml incubated for 18 hrs (reference value: 512 ug/ml).

Experiment [5] concerns the target T1, MexAB/OprM (Pseudomonas aeruginosa (strain ATCC 15692 / DSM 22644 / CIP 104116 / JCM14847 / LMG 12228 / 1C / PRS 101 / PAO1)). In words: Inhibition of MexAB/OprM in Pseudomonas aeruginosa PAO1 assessed as potentiation of trimethoprim-induced antibacterial activity by measuring trimethoprim MIC at 128 ug/ml incubated for 18 hrs (reference value: 128 ug/ml).
Experiment [6] shares this target. In words: Inhibition of MexAB/OprM in Pseudomonas aeruginosa PAO1 assessed as potentiation of chloramphenicol-induced antibacterial activity by measuring chloramphenicol MIC at 128 ug/ml incubated for 18 hrs (reference value: 64 ug/ml).
Experiment [7] has the same target. In words: Inhibition of MexAB/OprM in Pseudomonas aeruginosa PAO1 assessed as potentiation of tetracycline-induced antibacterial activity by measuring tetracycline MIC at 128 ug/ml incubated for 18 hrs (reference value: 8 ug/ml).
The target is the same in experiment [8]. In words: Inhibition of MexAB/OprM in Pseudomonas aeruginosa PAO1 assessed as potentiation of carbenicillin-induced antibacterial activity by measuring carbenicillin MIC at 128 ug/ml incubated for 18 hrs (reference value: 64 ug/ml).
The target is the same in experiment [9]. Kind of experiment: Inhibition of MexAB/OprM in Pseudomonas aeruginosa PAO1 assessed as potentiation of ciprofloxacin-induced antibacterial activity by measuring ciprofloxacin MIC at 128 ug/ml incubated for 18 hrs (reference value: 1 ug/ml).
The subject of experiment [10] is Klebsiella aerogenes. In words: Inhibition of AcrAB-TolC in Enterobacter aerogenes EA3 assessed as potentiation of chloramphenicol-induced antibacterial activity by measuring chloramphenicol MIC at 0.2 mM incubated for 18 hrs (reference value: 512 ug/ml).
The subject of experiment [11] is Klebsiella aerogenes. In words: Inhibition of AcrAB-TolC in Enterobacter aerogenes EA3 assessed as potentiation of norfloxacin-induced antibacterial activity by measuring norfloxacin MIC at 0.2 mM incubated for 18 hrs (reference value: 256 ug/ml).
Experiment [12] relates to Klebsiella aerogenes. In words: Inhibition of AcrAB-TolC in Enterobacter aerogenes EA3 assessed as potentiation of tetracycline-induced antibacterial activity by measuring tetracycline MIC at 0.2 mM incubated for 18 hrs (reference value: 8 ug/ml).
For experiment [13], the system named is Staphylococcus aureus. In words: Potentiation of gentamicin-induced antibacterial activity against Staphylococcus aureus 358 assessed as gentamicin MIC at 64 ug/ml after 24 hrs by broth microdilution assay (reference value: 312.5 ug/ml). The experiment is classed as functional. The note with it: Staphylococcus aureus, 358, 24 h. Background: In broth dilution the organism is exposed to a series of concentrations in liquid medium.

Experiment [14] concerns Pseudomonas aeruginosa. Kind of experiment: Potentiation of gentamicin-induced antibacterial activity against Pseudomonas aeruginosa 03 assessed as gentamicin MIC at 32 ug/ml after 24 hrs by broth microdilution assay (reference value: 625 ug/ml). The format is functional. The conditions noted are these: Pseudomonas aeruginosa, 03, 24 h.
Experiment [15] relates to Escherichia coli. In words: Potentiation of neomycin-induced antibacterial activity against Escherichia coli 27 assessed as neomycin MIC at 64 ug/ml after 24 hrs by broth microdilution assay (reference value: 312.5 ug/ml). The format is functional. The note with it: Escherichia coli, 27, 24 h.
Experiment [16] concerns Escherichia coli. Kind of experiment: Potentiation of gentamicin-induced antibacterial activity against Escherichia coli 27 assessed as gentamicin MIC at 64 ug/ml after 24 hrs by broth microdilution assay (reference value: 625 ug/ml). The experiment is classed as functional. The conditions noted are these: Escherichia coli, 27, 24 h.
Experiment [17] concerns Pseudomonas aeruginosa. Kind of experiment: Potentiation of amikacin-induced antibacterial activity against Pseudomonas aeruginosa 03 assessed as amikacin MIC at 32 ug/ml after 24 hrs by broth microdilution assay (reference value: 312.5 ug/ml). The experiment is classed as functional. The conditions noted are these: Pseudomonas aeruginosa, 03, 24 h.
The test system of experiment [18] is Escherichia coli. In words: Potentiation of amikacin-induced antibacterial activity against Escherichia coli 27 assessed as amikacin MIC at 64 ug/ml after 24 hrs by broth microdilution assay (reference value: 156.2 ug/ml). The experiment is classed as functional. The note with it: Escherichia coli, 27, 24 h.
The subject of experiment [19] is Staphylococcus aureus. Kind of experiment: Potentiation of neomycin-induced antibacterial activity against Staphylococcus aureus 358 assessed as neomycin MIC at 64 ug/ml after 24 hrs by broth microdilution assay (reference value: 156.2 ug/ml). The note with it: Staphylococcus aureus, 358, 24 h. The format is functional.
The subject of experiment [20] is Staphylococcus aureus. In words: Potentiation of amikacin-induced antibacterial activity against Staphylococcus aureus 358 assessed as amikacin MIC at 64 ug/ml after 24 hrs by broth microdilution assay (reference value: 156.2 ug/ml). The format is functional. The note with it: Staphylococcus aureus, 358, 24 h.

Chain of Metallo-beta-lactamase type 2 (Klebsiella pneumoniae) (C7C422 whole entry): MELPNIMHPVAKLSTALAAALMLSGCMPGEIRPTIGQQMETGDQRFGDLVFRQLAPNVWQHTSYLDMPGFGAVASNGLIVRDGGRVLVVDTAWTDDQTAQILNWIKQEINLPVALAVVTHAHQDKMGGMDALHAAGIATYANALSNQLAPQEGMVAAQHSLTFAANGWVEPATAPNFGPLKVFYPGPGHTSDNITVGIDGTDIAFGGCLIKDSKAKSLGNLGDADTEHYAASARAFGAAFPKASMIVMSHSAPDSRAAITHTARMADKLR
Chain of Beta-lactamase (Staphylococcus aureus) (P00807 whole entry): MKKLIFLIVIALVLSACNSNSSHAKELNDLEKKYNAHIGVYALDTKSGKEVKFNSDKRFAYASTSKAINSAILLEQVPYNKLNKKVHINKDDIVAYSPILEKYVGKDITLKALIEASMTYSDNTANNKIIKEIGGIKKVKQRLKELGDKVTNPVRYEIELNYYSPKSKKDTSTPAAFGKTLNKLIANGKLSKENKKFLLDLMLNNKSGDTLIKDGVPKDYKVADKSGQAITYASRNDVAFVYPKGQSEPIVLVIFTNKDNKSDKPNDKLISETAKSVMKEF
Description for Bacteroides fragilis: Inhibition of beta-lactamase in Bacteroides fragilis 78C004 assessed as potentiation of benzylpenicillin-induced antibacterial activity by measuring benzylpenicillin MIC at 3.12 ug/ml (Rvb = 200 ug/ml)

`N[C@H](CN[C@H](CN[C@@H](CC(=O)O)C(=O)O)C(=O)O)C(=O)O`: the survival at 30 mg/kg in the experiment with Klebsiella pneumoniae is 95%. Besides, in experiment [1], the MIC amounted to 1 µg/mL.
Turning to `CC1(C)[C@H](C(=O)O)N2C(=O)C[C@H]2S1(=O)=O`, the MIC in experiment [2] is 1.56 µg/mL (≈ 6.69 µM); against Haemophilus influenzae it was 1.56 µg/mL (≈ 6.69 µM); in experiment [3], 1.56 µg/mL (≈ 6.69 µM); against Bacteroides fragilis, 3.12 µg/mL (≈ 13.4 µM).
On to `O=C(O[C@@H]1Cc2c(O)cc(O)cc2O[C@@H]1c1cc(O)c(O)c(O)c1)c1cc(O)c(O)c(O)c1`, for which the MIC in experiment [4] was determined as 128 µg/mL; in experiment [5] it was 32 µg/mL; in experiment [6], 16 µg/mL; in experiment [7], 2 µg/mL; in experiment [8], 64 µg/mL; in [9] it was 0.5 µg/mL.
As to `Cc1c([N+](=O)[O-])ccc2c(NCCN3CCCCC3)ccnc12`, the MIC is 2 µg/mL in the experiment on Klebsiella aerogenes [10], 16 µg/mL in the experiment on Klebsiella aerogenes [11] and 0.5 µg/mL with Klebsiella aerogenes [12].
`CC1=CC(=O)c2ccccc2C1=O` [MENADIONE]: the MIC in the experiment on Staphylococcus aureus [13], with Pseudomonas aeruginosa [14], in the experiment on Escherichia coli [15], in the experiment on Escherichia coli [16], with Pseudomonas aeruginosa [17] and with Escherichia coli [18] was 2.4 µg/mL throughout. Moreover, the MIC in the experiment on Staphylococcus aureus [19] and in the experiment with Staphylococcus aureus [20] was 2.4 µg/mL throughout.
